PMC6278829 (Anesthesiology, 2018)

Legend:
[1] = target: α1β3γ2L GABAA receptors (β+ – α− sites) (Homo sapiens, UniProt P14867+P18507+P28472); assay: Inhibition of ^3[H]azi-etomidate photoaffinity labeling of purified receptors; assay type: binding; settings: read-out: IC50 for Inhibiting Photoaffinity Labeling by ^3[H]Azi-etomidate (95% CI); ~2 μM photolabel; 1 mM GABA (open/desensitized state)
[2] = test system: GABAA receptor transmembrane anesthetic binding sites; settings: cited from earlier work
[3] = target: α1β3γ2L GABAA receptors (Homo sapiens, UniProt P14867+P18507+P28472); assay type: cell-based; settings: 100 μM drug; wild-type receptors; n = 6 oocytes; EC5 GABA alone 4.4 ± 1.2%; P = 0.002
Chain of α1β3γ2L GABAA receptors (P14867 28-456): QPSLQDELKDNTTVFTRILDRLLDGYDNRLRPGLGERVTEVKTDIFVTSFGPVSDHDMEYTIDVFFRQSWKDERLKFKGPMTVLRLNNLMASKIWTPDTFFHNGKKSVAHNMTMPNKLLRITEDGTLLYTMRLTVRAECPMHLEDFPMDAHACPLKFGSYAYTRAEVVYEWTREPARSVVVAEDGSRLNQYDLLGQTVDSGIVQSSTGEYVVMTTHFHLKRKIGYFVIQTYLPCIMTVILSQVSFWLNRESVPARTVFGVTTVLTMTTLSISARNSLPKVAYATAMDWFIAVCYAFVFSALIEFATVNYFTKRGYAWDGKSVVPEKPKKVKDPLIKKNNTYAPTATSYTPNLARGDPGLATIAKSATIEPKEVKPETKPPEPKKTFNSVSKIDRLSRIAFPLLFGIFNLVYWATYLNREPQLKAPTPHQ
Chain of α1β3γ2L GABAA receptors (P28472 26-473): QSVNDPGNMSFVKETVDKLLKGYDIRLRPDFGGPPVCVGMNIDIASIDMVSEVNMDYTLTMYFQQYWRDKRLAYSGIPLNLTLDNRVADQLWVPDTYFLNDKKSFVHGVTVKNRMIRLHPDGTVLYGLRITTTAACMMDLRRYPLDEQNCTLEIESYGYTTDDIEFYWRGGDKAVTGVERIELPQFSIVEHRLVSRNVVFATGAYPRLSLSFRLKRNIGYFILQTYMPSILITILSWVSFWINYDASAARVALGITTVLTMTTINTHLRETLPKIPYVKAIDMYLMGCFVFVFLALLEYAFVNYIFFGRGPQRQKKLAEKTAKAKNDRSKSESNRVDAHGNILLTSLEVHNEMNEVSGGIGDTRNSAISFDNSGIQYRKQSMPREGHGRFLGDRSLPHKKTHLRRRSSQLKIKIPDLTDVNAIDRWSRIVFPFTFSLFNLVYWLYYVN
Chain of α1β3γ2L GABAA receptors (P18507 40-475): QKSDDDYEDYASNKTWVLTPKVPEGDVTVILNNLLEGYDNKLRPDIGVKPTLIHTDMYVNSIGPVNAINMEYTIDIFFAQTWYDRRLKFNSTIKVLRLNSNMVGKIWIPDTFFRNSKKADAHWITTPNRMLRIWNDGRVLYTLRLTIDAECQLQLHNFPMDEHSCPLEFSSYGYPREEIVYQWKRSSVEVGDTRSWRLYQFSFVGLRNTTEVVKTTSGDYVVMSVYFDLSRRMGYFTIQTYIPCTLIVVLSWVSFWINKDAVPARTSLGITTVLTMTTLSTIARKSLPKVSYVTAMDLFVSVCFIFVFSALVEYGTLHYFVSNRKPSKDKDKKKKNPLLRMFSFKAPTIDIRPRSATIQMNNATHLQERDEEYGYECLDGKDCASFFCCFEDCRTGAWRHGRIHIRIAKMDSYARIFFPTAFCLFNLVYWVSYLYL

Chain of α1β3γ2L GABAA receptors (β+ – α− sites) (P14867 28-456): as the sequence (P14867 28-456) above
Chain of α1β3γ2L GABAA receptors (β+ – α− sites) (P28472 26-473): as the sequence (P28472 26-473) above
Chain of α1β3γ2L GABAA receptors (β+ – α− sites) (P18507 40-475): as the sequence (P18507 40-475) above

CCOC(=O)c1cncn1[C@H](C)c1ccc(F)cc1 [p-Fluoro-etomidate]
IC50 [1]: 3.6 µM

CC(c1ccccc1)n1cncc1C(=O)OCCC1(C)N=N1 (stereo not drawn) [^3[H]azi-etomidate]
Selectivity of photolabel for its respective class of binding sites [2]: more than 50 fold

CCOC(=O)c1cncn1C(C)c1cccc2ccccc12 (stereo not drawn) [Naphthalene-etomidate]
Peak amplitude of EC5 GABA-evoked current with drug [3]: 10 ± 2.4 % of the current produced by 1 mM GABA

CCOC(=O)c1cncn1[C@H](C)c1ccc(OC)cc1 [p-Methoxy-etomidate]
IC50 [1]: 75 µM

CCOC(=O)c1cncn1[C@H](C)c1ccc(Br)cc1 [p-Bromo-etomidate]
IC50 [1]: 8.1 µM

m-Dimethoxy-etomidate
IC50 [1]: 830 µM

CCOC(=O)c1cncn1[C@H](C)c1cccc(OC(C)C)c1 [m-Isopropoxy-etomidate]
IC50 [1]: 210 µM

C=CC[C@@]1(c2cccc(C3(C(F)(F)F)N=N3)c2)C(=O)NC(=O)N(C)C1=O
Selectivity of photolabel for its respective class of binding sites [2]: more than 50 fold

CCOC(=O)c1cncn1C(C)c1ccc2ccccc2c1 (stereo not drawn) [Naphthalene2-etomidate]
IC50 [1]: 77 µM
